Reference: publication PMC3610419, “A Randomized, Double-Blind Placebo Controlled Trial of Balapiravir, a Polymerase Inhibitor, in Adult Dengue Patients” (The Journal of Infectious Diseases, 2012)
Entries after “also recorded” stand apart in the source; their conditions may differ.

Columns and labels:
[1] = test system: DENV-3; assay: Inhibition of DENV replication in Huh-7 cells, viral RNA by quantitative real time PCR; format: cell-based, dengue virus; conditions: Dengue virus, DENV3, Huh-7, 48 h, mean ± SD of 3 experiments
Protocol: (§1) ^a Each experiment was done in duplicate. The mean and standard deviation shown represent 3 independent (different date) experiments for each virus tested. Huh-7 cells were plated in 96-well plate at 10,000 cells/well in DMEM containing 10 % FBS in 100 μl volume one day prior to set up of the assay. The following day the medium was aspirated off and diluted virus at a multiplicity of infection of 0.5 or media was added to the assay and control wells, respectively. The virus was allowed to attach to the cells for two hours at 37°C in a humidified 5% C02 atmosphere while the dilutions of the test molecule were prepared. Test molecules (or medium as a control) were added after aspiration of the virus-containing media 2 hours post-infection in 3-fold dilutions at a final DMSO concentration of 1%. After 48 hrs, cells were washed and cellular RNA were isolated. In this study, we used a quantitative real time PCR method to quantitate dengue viral RNA in Huh-7 in the presence of inhibitors. Viral RNA and endogenous 18S rRNA control (Applied Bio System) was quantified by a real time PCR assay using the following primers. Dengue Reverse (Common to all the serotypes): 5’-[…]-3’, Dengue forward serotype 1: 5’-[…]-3’, Dengue forward serotype 2 or 3: 5’-[…]-3’, Dengue forward serotype 4: 5’-[…] -3’ and Dengue probe (Common to all the serotypes): 5'-/56-FAM/[…]/3BHQ_1/-3'. Taqman was performed in duplicate. IC50 was obtained using the following calculations. First ΔCt was calculated by subtracting 18S rRNA CT value from dengue RNA CT value. ΔCts from duplicate taqman assay were averaged. Then ΔΔCt was obtained by subtracting the average ΔCt of non-treated sample from the treated sample average ΔCt. Relative quantification was calculated using the following formula. Relative quantification = 2^-averageΔΔCT. The 50% inhibitory concentrations (EC50) were calculated using the sigmoidal dose-response model in Microsoft XLfit.

[2] = test system: DENV-4; assay: as above; format: cell-based, dengue virus; conditions: Dengue virus, DENV4, Huh-7, 48 h, mean ± SD of 3 experiments
Protocol: as §1

[3] = test system: DENV-1; assay: as above; format: cell-based, dengue virus; conditions: Dengue virus, DENV1, Huh-7, 48 h, mean ± SD of 3 experiments
Protocol: as §1

[4] = test system: DENV-2; assay: as above; format: cell-based, dengue virus; conditions: Dengue virus, DENV2, Huh-7, 48 h, mean ± SD of 3 experiments
Protocol: as §1

[5] = test system: DENV; assay: Plasma viremia (RT-PCR) in adult dengue patients, randomized placebo-controlled trial; format: in vivo, human; conditions: for Median time to first viremia level of <1000 copies/mL (IQR): Kaplan-Meier estimate, inpatient period; for AUC viremia, Mean / AUC viremia, Median (IQR): hour 0 to hour 168
Protocol: Plasma samples were collected for virological and immunological investigations every 12 hours, beginning immediately before commencement of treatment, during the next 6 study days and on one occasion on study day 7 and day 14 (virological markers) or day 7 and day 28 (immunological markers). Viremia was measured using a validated, internally controlled reverse-transcription polymerase chain reaction assay in a Good Clinical Laboratory Practice environment. The limit of detection was 357 copies/mL for DENV-1, 72 copies/mL for DENV-2, 357 copies/mL for DENV-3, and 720 copies/mL for DENV-4. The presence of NS1 in plasma was determined using the Platelia NS1 assay (Bio-Rad) and was performed according to the manufacturer's instructions. Plasma cytokine levels (interleukin 1β [IL-1β], IL-2, IL-4, IL-5, IL-6, IL-10, IL-12p70, IL-13, interferon γ [IFN-γ], and tumor necrosis factor α [TNF-α]) were measured using a Bio-Plex human cytokine assay (Bio-Rad) and a multiplex array reader (Luminex Systems, Bio-Plex workstation from Bio-Rad Laboratories) according to the manufacturer's instructions. Briefly, 50-μL plasma samples were incubated with monoclonal antibody coupled beads. Complexes were washed twice, then incubated with biotinylated detection antibodies and, finally, labeled with streptavidin-phycoerythrin prior to analysis. Cytokine concentrations in samples were calculated by use of recombinant cytokines as standards and software provided by the manufacturer (Bio-Plex Manager). All research samples (for pharmacology, virology, and immunology) were collected and processed in the laboratory within 1 hour of venupuncture. All virological and immunological measurements and analyses were performed by analysts who were blind to the treatment assignment
Key viremia endpoints of the study were as follows: area under the log-transformed viremia curve (AUC) from first dose to the end of study day 7 (study hour 168), calculated on the basis of the trapezoidal rule with values below the limit of detection replaced by half of the detection limit; time to first viremia level of <1000 copies/mL until study day 7; and time to the first negative NS1 test result. Other predefined key endpoints included fever clearance time, defined as the time from the start of treatment to the start of the first 48-hour period during which axillary temperature remained <37.5°C; maximum hematocrit level; maximum percentage increase of hematocrit level from baseline; platelet count nadir; and lowest recorded quality of life score.
Time to event endpoints were compared between treatment groups on the basis of Cox regression and continuous endpoints on the basis of linear regression. Analyses were adjusted for the predose value of the respective endpoint; viremia and NS1 endpoints were additionally adjusted for dengue serotype. For all endpoints, we report P values of a trend test for a dose-response relationship with treatment entered as a continuous variable with values 0 (placebo), 1 (low-dose), and 2 (high-dose) into the regression model.

[6] = High-dose (3000 mg twice a day, 5 days), n = 22
[7] = Low-dose (1500 mg twice a day, 5 days), n = 10

**Q.** Which results are given for `CC(C)C(=O)OC[C@@]1(N=[N+]=[N-])O[C@@H](n2ccc(N)nc2=O)[C@H](OC(=O)C(C)C)[C@@H]1OC(=O)C(C)C` [Balapiravir]?
**A.** IC50 ([1]; DENV-3 strain 33/0072 (clinical isolate), Huh-7 cells): 3 ± 0.4 µM; IC50 ([1]; DENV-3 strain 33/0096 (clinical isolate), Huh-7 cells): 3.4 ± 1.7 µM; IC50 ([1]; DENV-3 strain 33/0177 (clinical isolate), Huh-7 cells): 3.2 ± 0.9 µM; IC50 ([1]; DENV-3 strain 33/0253 (clinical isolate), Huh-7 cells): 4.4 ± 0.9 µM; IC50 ([1]; DENV-3 strain H87, Huh-7 cells): 3.7 ± 0.9 µM; IC50 ([2]; DENV-4 strain H241, Huh-7 cells): 11 ± 1 µM; IC50 ([2]; DENV-4 strain Phili/1567, Huh-7 cells): 2 ± 0.4 µM; IC50 ([2]; DENV-4 strain Senga/DA, Huh-7 cells): 6.5 ± 0.9 µM; IC50 ([2]; DENV-4 strain Venz/JQ, Huh-7 cells): 5.5 ± 1.3 µM; IC50 ([3]; DENV-1 strain FR28 (clinical isolate)): 6.8 ± 1.1 µM; IC50 ([3]; DENV-1 strain FR34 (clinical isolate)): 7 ± 2 µM; IC50 ([3]; DENV-1 strain FR37 (clinical isolate)): 7.2 ± 2 µM; IC50 ([3]; DENV-1 strain FR42 (clinical isolate)): 7.4 ± 2.3 µM; IC50 ([3]; DENV-1 strain Thsman): 8.8 ± 1.2 µM; IC50 ([4]; DENV-2 strain 32/0102 (clinical isolate), Huh-7 cells): 3 ± 0.5 µM; IC50 ([4]; DENV-2 strain 32/0140 (clinical isolate), Huh-7 cells): 1.9 ± 0.7 µM; IC50 ([4]; DENV-2 strain 33/0051 (clinical isolate), Huh-7 cells): 2 ± 0.2 µM; IC50 ([4]; DENV-2 strain 33/0178 (clinical isolate), Huh-7 cells): 2 ± 0.6 µM; IC50 ([4]; DENV-2 strain Th36, Huh-7 cells): 4.6 ± 0.4 µM; effect on virological markers (time to clearance of viremia, time to clearance of NS1 antigenemia, AUC) ([5]; 1500 mg or 3000 mg twice daily for 5 days versus placebo): did not measurably alter; also recorded: no measurable effect; Median time to first viremia level of <1000 copies/mL (IQR) [5, 6]: 4 (3–5) d; AUC viremia, Mean [5, 6]: 32.56 log10 copies/mL × d; AUC viremia, Median (IQR) [5, 6]: 31.98 (27.60–34.98) log10 copies/mL × d; Median time to first viremia level of <1000 copies/mL (IQR) [5, 7]: 5 (4, NA) d; AUC viremia, Mean [5, 7]: 34.49 log10 copies/mL × d; AUC viremia, Median (IQR) [5, 7]: 29.63 (27.41–39.86) log10 copies/mL × d
